Data taken from PMC9012943, “Oral remdesivir derivative VV116 is a potent inhibitor of respiratory syncytial virus with efficacy in mouse model” (Signal Transduction and Targeted Therapy, 2022).
Several values for one entry are separate records, joined by “and”; a condition that tells them apart may be missing. Equal values may be shown once. Read-outs that look alike come from different tables or passages of the source. Values belong to the compound of their own block, whether it stands above or below them.

Experiments:
[1] = Cellular toxicity in A549 cells (WST-8 cell viability); type: cell-based; conditions: human
Description: Cell viability was performed in 96-well plate with triplicate for each concentration. All drugs were diluted 2 times with 9 gradients starting at 500 micromores in maintenance medium (DMEM containing 2% FBS). After 48 h incubation, the supernatant was removed, and 10 μL WST-8 (2-(2-methoxy-4-(phenyl)-3-(4-(phenyl) to 5 (2, 4-sulpho benzene) -2 h-tetrazolium monosodium salt) in maintenance medium was added in medium. Plates were measured at 450 nm wavelength using spectrophotometer (BioTek) after 2 h incubation, and cell viability was calculated.

RSV A2 [2] = test: Inhibition of RSV A2 replication in A549 cells (qRT-PCR); type: cell-based, respiratory syncytial virus; conditions: for EC50: human respiratory syncytial virus, RSV A2 MOI 2, 48 h
Description: A549, HEp-2 or NHBE cells were plated into 48 well-plate and incubated overnight. Upon reaching 80% cell confluence, cells were infected RSV A2 (at an MOI of 2 in A549, MOI of 0.5 in HEp-2, and MOI of 1 in NHBE cells) for 2 h after cells were incubated for 1 h with varying concentrations of drugs. Then, the virus-drug mixture was removed, and cells were cultured with drug-containing medium. At 48 h post inoculation, total RNAs were extracted from cells and then in reverse transcription using PrimeScript RT reagent Kit with gDNA Eraser (TaKaRa). For determining the viral copies, absolute quantitative RT-PCR was performed with TB Green® Premix Ex Taq^TM II (TaKaRa). RSV A2 F fragment was quantified with primers 5’-[…]-3’; and 5’-[…]-3’

[3] = Pharmacokinetic study in SD rats; type: in vivo
Description: SD rats (N = 3 for each group, male) were fasted for 12 h before dosing (only for the oral administration). The test compound (VV116 or VV116-H) was administered intravenously at 5.0 mg/kg dissolved in DMSO-enthanol-PEG300-saline (5/5/40/50, v/v/v/v), and administered orally at 30 mg/kg dissolved in 40%PEG400+10% Kolliphor® HS15+50% ultrapure water. At 5 min, 0.25, 0.5, 1.0, 2.0, 4.0, 6.0, 8.0, and 24 h post-dosing, blood samples were collected from the jugular vein into EDTA-K2 tubes. […] samples were obtained following general procedures and the concentrations of analytes in the supernatant were analyzed by LC-MS/MS.

RSV A2 [4] = type: in vivo, Balb/c mice; conditions: ribavirin 100 mg/kg b.i.d., day 4 p.i.
Description: Considering the potent effect of VV116 inhibiting RSV in vitro, we further tested the effect of […] against RSV in a mouse model. Ribavirin, the off-label used drug to treat RSV in the clinic, was employed as a control. To this end, 6–8-week Balb/c mice were intranasally infected with 4 × 10^6 FFU of RSV per mouse (day 0), and were then treated with VV116 (25, 50, and 100 mg/kg) or ribavirin (50 and 100 mg/kg) bis in die (b.i.d.) (supplementary Fig S3). […] Viral RNA level in the lung was measured with quantitative RT-PCR and virion load was measured with immunoplaque assay (Fig. 1e). […] We also evaluated the lung pathology of the challenged mice by histochemical analysis.
Specific pathogen-free (SPF) female Balb/c mice at the age of 6–8 weeks were purchased from Beijing Vital River Laboratory Animal Technology Co., Ltd. The mice were housed in an SPF environment under standard conditions. All mouse experiments were approved by the ethics committee of the Wuhan Institute of Virology, Chinese Academy of Science (permit number WIVA25202113). Thirty mice (5 animals per group, 6 groups) were anaesthetized with isoflurane and challenged with 4×10^6 FFU of RSV A2 intranasally (i.n.). The mice were given drugs by intragastric administration. Treatments were commenced in 1 h post infection and continued for 4 days. […] The weight of the mice was recorded daily. […]

RSV = tested on: RSV; design: method as in PMID 8413475; conditions: prophylactic treatment; cited from earlier work
[5] = A549 cells, 48 h, read-out: CC50
[6] = X1 (VV116) or GS-441524 (VV116-H), i.v. 5.0 mg/kg
[7] = X1 (VV116) or GS-441524 (VV116-H), p.o. 30.0 mg/kg

EC50 (RSV A2 [2]): 280 ± 70 nM
Compound: Nc1ccn([C@@H]2O[C@@](CO)(CCl)[C@@H](O)[C@H]2F)c(=O)n1 [ALS-8112]
CC50 at 48 h [1, 5]: > 500000 nM | SI (RSV A2 [2]): > 1785

EC50 (RSV A2 [2]): 820 ± 460 nM
Compound: N#C[C@@]1(c2ccc3c(N)ncnn23)O[C@H](CO)[C@@H](O)[C@H]1O [GS-441524, 1′-CN-4-aza-7,9-dideazaadenosine C-nucleoside]
CC50 at 48 h [1, 5]: > 500000 nM | SI (RSV A2 [2]): > 608

EC50 (RSV A2 [2]): 20 ± 3 nM
Compound: CCC(CC)COC(=O)[C@H](C)N[P@](=O)(OC[C@H]1O[C@@](C#N)(c2ccc3c(N)ncnn23)[C@H](O)[C@@H]1O)Oc1ccccc1 [RDV, Remdesivir]
CC50 at 48 h [1]: 226000 ± 11400 nM | SI (RSV A2 [2]): 11300

Concentration of X1 or GS-441524 in plasma, Mean ([3]; IV 5.0 mg/kg, 5 min): 1997 ng/mL | Concentration of X1 or GS-441524 in plasma, individual rats ([3]; IV 5.0 mg/kg, 5 min, 5 mg/kg): 1940 ng/mL and 1960 ng/mL and 2090 ng/mL | Concentration of X1 or GS-441524 in plasma, Mean ([3]; IV 5.0 mg/kg, 0.25 h): 1557 ng/mL | Concentration of X1 or GS-441524 in plasma, individual rats ([3]; IV 5.0 mg/kg, 0.25 h, 5 mg/kg): 1560 ng/mL and 1620 ng/mL and 1490 ng/mL | Concentration of X1 or GS-441524 in plasma, Mean ([3]; IV 5.0 mg/kg, 0.5 h): 983 ng/mL | Concentration of X1 or GS-441524 in plasma, individual rats ([3]; IV 5.0 mg/kg, 0.5 h, 5 mg/kg): 1040 ng/mL and 921 ng/mL and 988 ng/mL | Concentration of X1 or GS-441524 in plasma, Mean ([3]; IV 5.0 mg/kg, 1.0 h): 502 ng/mL | Concentration of X1 or GS-441524 in plasma, individual rats ([3]; IV 5.0 mg/kg, 1.0 h, 5 mg/kg): 425 ng/mL and 522 ng/mL and 558 ng/mL | Concentration of X1 or GS-441524 in plasma, Mean ([3]; IV 5.0 mg/kg, 2.0 h): 158 ng/mL | Concentration of X1 or GS-441524 in plasma, individual rats ([3]; IV 5.0 mg/kg, 2.0 h, 5 mg/kg): 150 ng/mL and 163 ng/mL and 162 ng/mL | Concentration of X1 or GS-441524 in plasma, Mean ([3]; IV 5.0 mg/kg, 4.0 h): 25 ng/mL | Concentration of X1 or GS-441524 in plasma, individual rats ([3]; IV 5.0 mg/kg, 4.0 h, 5 mg/kg): 23.6 ng/mL and 24.3 ng/mL and 27.8 ng/mL | Concentration of X1 or GS-441524 in plasma, Mean ([3]; IV 5.0 mg/kg, 6.0 h): 11 ng/mL | Concentration of X1 or GS-441524 in plasma, individual rats ([3]; IV 5.0 mg/kg, 6.0 h, 5 mg/kg): BQL (2×) and 11.2 ng/ml | Concentration of X1 or GS-441524 in plasma, individual rats ([3]; IV 5.0 mg/kg, 8.0 h): BQL | Concentration of X1 or GS-441524 in plasma, individual rats ([3]; IV 5.0 mg/kg, 24.0 h): BQL | Concentration of X1 or GS-441524 in plasma, Mean ([3]; PO 30.0 mg/kg, 5 min): 251 ng/mL | Concentration of X1 or GS-441524 in plasma, individual rats ([3]; PO 30.0 mg/kg, 5 min, 30 mg/kg): 122 ng/mL and 279 ng/mL and 353 ng/mL | Concentration of X1 or GS-441524 in plasma, Mean ([3]; PO 30.0 mg/kg, 0.25 h): 1480 ng/mL | Concentration of X1 or GS-441524 in plasma, individual rats ([3]; PO 30.0 mg/kg, 0.25 h, 30 mg/kg): 1450 ng/mL and 1180 ng/mL and 1810 ng/mL | Concentration of X1 or GS-441524 in plasma, Mean ([3]; PO 30.0 mg/kg, 0.5 h): 1963 ng/mL | Concentration of X1 or GS-441524 in plasma, individual rats ([3]; PO 30.0 mg/kg, 0.5 h, 30 mg/kg): 1790 ng/mL and 1440 ng/mL and 2660 ng/mL | Concentration of X1 or GS-441524 in plasma, Mean ([3]; PO 30.0 mg/kg, 1.0 h): 1523 ng/mL | Concentration of X1 or GS-441524 in plasma, individual rats ([3]; PO 30.0 mg/kg, 1.0 h, 30 mg/kg): 1570 ng/mL and 1490 ng/mL and 1510 ng/mL | Concentration of X1 or GS-441524 in plasma, Mean ([3]; PO 30.0 mg/kg, 2.0 h): 1717 ng/mL | Concentration of X1 or GS-441524 in plasma, individual rats ([3]; PO 30.0 mg/kg, 2.0 h, 30 mg/kg): 1610 ng/mL and 1730 ng/mL and 1810 ng/mL | Concentration of X1 or GS-441524 in plasma, Mean ([3]; PO 30.0 mg/kg, 4.0 h): 860 ng/mL | Concentration of X1 or GS-441524 in plasma, individual rats ([3]; PO 30.0 mg/kg, 4.0 h, 30 mg/kg): 761 ng/mL and 995 ng/mL and 825 ng/mL | Concentration of X1 or GS-441524 in plasma, Mean ([3]; PO 30.0 mg/kg, 6.0 h): 179 ng/mL | Concentration of X1 or GS-441524 in plasma, individual rats ([3]; PO 30.0 mg/kg, 6.0 h, 30 mg/kg): 154 ng/mL and 165 ng/mL and 218 ng/mL | Concentration of X1 or GS-441524 in plasma, Mean ([3]; PO 30.0 mg/kg, 8.0 h): 76 ng/mL | Concentration of X1 or GS-441524 in plasma, individual rats ([3]; PO 30.0 mg/kg, 8.0 h, 30 mg/kg): 32.8 ng/mL and 90 ng/mL and 106 ng/mL | Concentration of X1 or GS-441524 in plasma, Mean ([3]; PO 30.0 mg/kg, 24.0 h): 13 ng/mL | Concentration of X1 or GS-441524 in plasma, individual rats ([3]; PO 30.0 mg/kg, 24.0 h, 30 mg/kg): 9.79 ng/mL and 23.3 ng/mL and 6.27 ng/mL | AUC0-t [3, 6]: 1689 ± 80 ng·h/mL | AUC0-∞ [3, 6]: 1709 ± 74 ng·h/mL | CL [3, 6]: 48.8 ± 2.1 mL/min/kg | Cmax [3, 6]: 1997 ± 81 ng/mL | MRT0-∞ [3, 6]: 0.82 ± 0.05 h | T1/2 [3, 6]: 0.73 ± 0.07 h | Vss [3, 6]: 2.41 ± 0.05 L/kg | AUC0-t [3, 7]: 7664 ± 802 ng·h/mL | AUC0-∞ [3, 7]: 7768 ± 827 ng·h/mL | Cmax [3, 7]: 2060 ± 520 ng/mL | MRT0-∞ [3, 7]: 3.47 ± 0.80 h | T1/2 [3, 7]: 4.59 ± 2.08 h | Tmax [3, 7]: 1.00 ± 0.87 h | F ([3]; X1 (VV116) or GS-441524 (VV116-H), p.o. 30.0 mg/kg vs i.v. 5.0 mg/kg): 75.6%
Compound: CC(C)C(=O)OC[C@H]1O[C@@](C#N)(c2ccc3c(N)ncnn23)[C@H](OC(=O)C(C)C)[C@@H]1OC(=O)C(C)C [VV116-H]

EC50 (RSV A2 [2]): 1200 ± 320 nM
Compound: [2H]c1cc([C@]2(C#N)O[C@H](COC(=O)C(C)C)[C@@H](OC(=O)C(C)C)[C@H]2OC(=O)C(C)C)n2ncnc(N)c12 [X6]
CC50 at 48 h [1, 5]: 95900 ± 9270 nM | SI (RSV A2 [2]): 80

Compound: NC(=O)c1ncn([C@@H]2O[C@H](CO)[C@@H](O)[C@H]2O)n1 [ribavirin, Ribavirin]
Decrease of infectious titers in lung (RSV A2 [4]): ~ 2.0 log10 | Decrease of viral RNA copies in lung (RSV A2 [4]): ~ 1.5 log10

Compound: palivizumab: approved prophylactic treatment for prevention of serious RSV lower respiratory tract disease in high-risk children
Share of individuals in whom effective in preventing hospitalization (RSV): ~ 50%
